Measurements from patent US20240102898A1, “IMPROVED METHOD FOR OPTICALLY CLEARING A TISSUE SAMPLE FOR A LIGHT MICROSCOPY EXAMINATION” (MobiCron GmbH, priority 2020, published 2024).

Columns and labels:
[1] = Vapor pressures of embedding media (FIG. 1, from the literature)
Source text: The vapor pressures of various embedding media are known from the literature.

[2] = comparison of embedding media; cited from earlier work

| SMILES | vapor pressure, times lower than that of ethyl cinnamate ([1]; at 25° C.) | volatility, times less volatile than DBE ([1]; expanded section in FIG. 1) | vapor pressure (in words) [2] |
| --- | --- | --- | --- |
| O=C(Cc1ccccc1)OCc1ccccc1 [benzyl phenylacetate, benzyl 2-phenylacetate] | approximately 275 times | about 4 times | lowest vapor pressure |
| CCOC(=O)C=Cc1ccccc1 [ethyl cinnamate, reference compound] | – | – | comparatively high vapor pressure |
